We go through six compounds from PMC11912475 (Journal of Medicinal Chemistry, 2025).

Each structure is given as a SMILES string.

The target in one assay is T1, Muscarinic M5 (Homo sapiens, UniProt P08912).
T1 construct: host or cells: CHO-K1
T1 sequence (P08912 1-532): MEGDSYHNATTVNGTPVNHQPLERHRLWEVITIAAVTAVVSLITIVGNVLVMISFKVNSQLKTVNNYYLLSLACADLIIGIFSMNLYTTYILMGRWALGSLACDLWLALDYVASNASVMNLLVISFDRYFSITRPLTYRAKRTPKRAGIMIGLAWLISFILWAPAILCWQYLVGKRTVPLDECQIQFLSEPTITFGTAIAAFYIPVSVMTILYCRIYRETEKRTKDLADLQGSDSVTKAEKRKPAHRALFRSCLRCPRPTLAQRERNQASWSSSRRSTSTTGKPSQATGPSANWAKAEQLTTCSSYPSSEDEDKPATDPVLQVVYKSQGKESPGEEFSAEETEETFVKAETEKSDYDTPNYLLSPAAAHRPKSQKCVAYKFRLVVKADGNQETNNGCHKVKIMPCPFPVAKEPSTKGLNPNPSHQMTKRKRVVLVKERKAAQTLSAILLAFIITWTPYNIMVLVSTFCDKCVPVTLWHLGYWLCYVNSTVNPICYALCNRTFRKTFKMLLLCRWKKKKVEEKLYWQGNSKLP
Briefly: Radioligand displacement binding assay, [3H]N-methylscopolamine, M5. (In general: Loss of bound radioactivity is the signal in a displacement assay; it reports binding, not function.)

Another assay deals with T2, Serotonin 5-HT1A (Homo sapiens, UniProt P08908).
T2 construct: host or cells: CHO-K1
T2 sequence (P08908 1-422): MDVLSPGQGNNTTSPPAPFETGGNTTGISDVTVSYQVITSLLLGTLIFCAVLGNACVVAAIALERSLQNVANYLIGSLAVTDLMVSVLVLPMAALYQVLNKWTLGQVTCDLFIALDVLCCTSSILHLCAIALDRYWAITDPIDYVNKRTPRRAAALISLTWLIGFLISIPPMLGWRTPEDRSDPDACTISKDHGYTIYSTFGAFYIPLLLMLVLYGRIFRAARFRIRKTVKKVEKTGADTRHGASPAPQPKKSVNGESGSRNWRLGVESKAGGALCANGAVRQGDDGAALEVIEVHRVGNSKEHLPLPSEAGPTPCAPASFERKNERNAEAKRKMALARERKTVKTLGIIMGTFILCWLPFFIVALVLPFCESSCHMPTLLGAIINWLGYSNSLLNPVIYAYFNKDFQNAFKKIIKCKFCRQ
Briefly: Radioligand displacement binding assay, [3H]8-OH-DPAT, 5-HT1A.

In a further assay the target is T3, Serotonin 5-HT7 (Homo sapiens, UniProt P34969).
T3 construct: host or cells: CHO-K1
Briefly: Radioligand displacement binding assay, [3H]LSD, 5-HT7.

In assay [1] the target is T4, Norepinephrine transporter NET (Homo sapiens, UniProt P23975).
T4 construct: host or cells: MDCK
Description: Radioligand displacement binding assay, [125I]RTI-55, NET.

Another assay has as its target T5, Sigma σ1 (Homo sapiens, UniProt Q99720).
T5 construct: Sigma σ1; Source: Human Jurkat cells; host or cells: Jurkat
Briefly: Radioligand displacement binding assay, [3H]pentazocine, sigma σ1.

The target of a further assay is T6, Histamine H1 (Homo sapiens, UniProt P35367).
T6 construct: host or cells: CHO-K1
Description: Radioligand displacement binding assay, [3H]pyrilamine, H1. Particulars: for displacement at the histamine H1 receptor, in words: concentration not given.

Another assay addresses T7, Serotonin 5-HT2C (Homo sapiens, UniProt P28335).
T7 construct: host or cells: CHO-K1
T7 sequence (P28335 33-458): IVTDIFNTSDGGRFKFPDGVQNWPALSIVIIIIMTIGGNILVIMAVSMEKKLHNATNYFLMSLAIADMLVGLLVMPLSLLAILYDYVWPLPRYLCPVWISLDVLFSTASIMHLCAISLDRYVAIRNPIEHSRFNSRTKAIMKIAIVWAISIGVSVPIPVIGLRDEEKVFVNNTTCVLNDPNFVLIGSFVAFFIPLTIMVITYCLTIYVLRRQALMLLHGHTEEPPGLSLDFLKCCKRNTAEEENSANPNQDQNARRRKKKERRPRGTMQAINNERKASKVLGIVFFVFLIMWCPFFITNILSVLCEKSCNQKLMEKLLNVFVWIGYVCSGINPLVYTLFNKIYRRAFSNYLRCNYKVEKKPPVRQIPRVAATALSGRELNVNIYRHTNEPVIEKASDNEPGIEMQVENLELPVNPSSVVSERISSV
Description: Radioligand displacement binding assay, [3H]mesulergine, 5-HT2C.

Assay [2] addresses T8, Serotonin transporter SERT (Homo sapiens, UniProt P31645).
T8 construct: host or cells: HEK-293
Description: Radioligand displacement binding assay, [3H]paroxetine, SERT.

Another assay has as its target T9, Serotonin 5-HT5A (Homo sapiens, UniProt P47898).
T9 construct: host or cells: CHO-K1
Briefly: Radioligand displacement binding assay, [3H]LSD, 5-HT5A.

For a further assay, the target named is T10, Serotonin 5-HT2A (Homo sapiens, UniProt P28223).
T10 construct: host or cells: CHO-K1
Description: Radioligand displacement binding assay, [3H]ketanserin, 5-HT2A.

The target of assay [3] is GluN1-GluN2A NMDAR subtype (Homo sapiens, UniProt Q05586+Q12879). Description: FLIPR/Ca2+ assay, NMDAR GluN1-GluN2A subtype in CHO cells. Type of assay: cell-based. The note with it: CHO cells, 10 μM L-glutamate and 10 μM glycine; n.d. = 50% of inhibition could not be reached at the highest concentration used. The procedure: (§1) These compounds were assessed for their effects on specific heterodimeric NMDAR subtypes stably overexpressed in Chinese Hamster Ovary (CHO) cells. The subtypes tested included GluN1-GluN2A, GluN1-GluN2B, GluN1-GluN2C, and GluN1-GluN2D. CHO cells expressing each of the four NMDAR subtypes were incubated with 10 μM L-glutamate, a concentration known to elicit maximal Ca^2+ influx, serving as the stimulus. Intracellular Ca^2+ levels were subsequently measured to determine the extent of NMDAR activation.
(§2) Assay buffer composition was 145 mM NaCl, 5 mM KCl, 2 mM CaCl2, 1 g/Liter D-(+)-glucose, and 20 mM HEPES (pH 7.3 adjusted with NaOH). Cells were plated at a density of 15.000/well in 384 black/clear bottom plates. […] Cells were kept at 30 °C in 5% CO2 incubator for 24 h. Cells were preloaded for 1 h with 2 μM Fluo-4 Ca^2+-sensitive probe, simultaneously with 2.5 mM probenecid, an inhibitor of nonspecific anion transport, and 500 μM ketamine to avoid cytotoxicity. […] Intracellular Ca^2+ level was monitored by FLIPR (excitation wavelength at 470–495 nm, emission wavelength at 515–575 nm) for 10 s before and 5 min after the addition of test items. All test items, including L-glutamate and glycine, were added simultaneously. […] FLIPR data were normalized as 100%, in the presence of 10 μM L-glutamate and 10 μM glycine, while as 0%, in the presence of assay buffer. […] Then, data were normalized by Excel 2013 (Microsoft Office) software, using wells added with 10 μM L-glutamate plus 10 μM glycine (column 23) as high control, and wells added with assay buffer only (column 24) as low control. To assess plate quality, Z′ calculations were performed in Excel. Z′ was calculated according to following equation: Z′ = 1–3(σh + σl)/|μh – μL| where μ and σ are the means and the standard deviations of the means of high (h) and low (l) controls, respectively. Compound concentration–response curves were plotted by Prism 8 GraphPad software, in the different experimental conditions (see Supporting Information). Data were analyzed using least-squares regression fitting, to fit data to a standard four parameters logistic equation using GraphPad Prism10. This regression fitting allowed the calculation of pIC50 and the corresponding SEM.

For assay [4], the target named is T11, GluN1-GluN2B NMDAR subtype (Homo sapiens, UniProt Q05586+Q13224).
T11 construct: host or cells: NR1-2B-CHO cells, constitutive expression
Briefly: FLIPR/Ca2+ assay, NMDAR GluN1-GluN2B subtype in CHO cells. Type of assay: cell-based. The note with it: CHO cells, 10 μM L-glutamate and 10 μM glycine; n.d. = 50% of inhibition could not be reached at the highest concentration used. The procedure: as §1, §2

For assay [5], the target named is GluN1-GluN2D NMDAR subtype (Homo sapiens, UniProt O15399+Q05586). Description: FLIPR/Ca2+ assay, NMDAR GluN1-GluN2D subtype in CHO cells. The class given is cell-based. The note with it: CHO cells, 10 μM L-glutamate and 10 μM glycine; n.d. = 50% of inhibition could not be reached at the highest concentration used. The procedure:
as §1, §2

The target of assay [6] is GluN1-GluN2C NMDAR subtype (Homo sapiens, UniProt Q05586+Q14957). Description: FLIPR/Ca2+ assay, NMDAR GluN1-GluN2C subtype in CHO cells. The class given is cell-based. Particulars: CHO cells, 10 μM L-glutamate and 10 μM glycine; n.d. = 50% of inhibition could not be reached at the highest concentration used. The procedure: as §1, §2
In another assay the target is T12, μ opioid receptor (MOP) (Homo sapiens, UniProt P35372).
T12 construct: host or cells: CHO-K1
Briefly: biochemical. Type of assay: binding. Particulars: read-out: % inhibition of binding, MOP.

Assay [7] concerns Glutamate, NMDA, Phencyclidine binding site. Briefly: Radioligand displacement binding assay, [3H]TCP, NMDA. Details: species or system Wistar rat.

By inhibition is commonly meant the drop in the measured response relative to a control, in per cent.

T5 sequence (Q99720 whole entry): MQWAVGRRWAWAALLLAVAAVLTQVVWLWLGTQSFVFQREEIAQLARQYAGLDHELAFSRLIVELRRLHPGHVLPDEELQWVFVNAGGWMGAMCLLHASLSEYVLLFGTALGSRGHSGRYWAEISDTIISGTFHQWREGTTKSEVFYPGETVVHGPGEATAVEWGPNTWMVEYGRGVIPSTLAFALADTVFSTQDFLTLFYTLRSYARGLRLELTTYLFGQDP
T8 sequence (P31645 whole entry): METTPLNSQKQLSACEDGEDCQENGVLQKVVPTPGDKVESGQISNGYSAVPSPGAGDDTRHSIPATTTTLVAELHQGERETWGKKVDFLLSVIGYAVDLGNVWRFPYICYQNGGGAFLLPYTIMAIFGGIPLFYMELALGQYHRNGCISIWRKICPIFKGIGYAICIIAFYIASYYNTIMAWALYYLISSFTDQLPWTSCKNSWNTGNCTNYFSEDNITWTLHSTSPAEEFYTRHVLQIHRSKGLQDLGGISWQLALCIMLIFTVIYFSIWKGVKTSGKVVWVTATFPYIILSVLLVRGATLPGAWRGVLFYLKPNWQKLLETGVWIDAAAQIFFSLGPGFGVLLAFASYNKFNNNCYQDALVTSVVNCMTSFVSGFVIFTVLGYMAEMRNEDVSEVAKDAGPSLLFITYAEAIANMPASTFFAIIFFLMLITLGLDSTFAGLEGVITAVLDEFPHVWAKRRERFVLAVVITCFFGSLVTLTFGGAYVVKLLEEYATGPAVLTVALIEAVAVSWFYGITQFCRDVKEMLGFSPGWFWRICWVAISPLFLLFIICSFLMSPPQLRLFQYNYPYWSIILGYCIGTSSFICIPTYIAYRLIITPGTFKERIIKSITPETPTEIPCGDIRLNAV
T4 sequence (P23975 whole entry): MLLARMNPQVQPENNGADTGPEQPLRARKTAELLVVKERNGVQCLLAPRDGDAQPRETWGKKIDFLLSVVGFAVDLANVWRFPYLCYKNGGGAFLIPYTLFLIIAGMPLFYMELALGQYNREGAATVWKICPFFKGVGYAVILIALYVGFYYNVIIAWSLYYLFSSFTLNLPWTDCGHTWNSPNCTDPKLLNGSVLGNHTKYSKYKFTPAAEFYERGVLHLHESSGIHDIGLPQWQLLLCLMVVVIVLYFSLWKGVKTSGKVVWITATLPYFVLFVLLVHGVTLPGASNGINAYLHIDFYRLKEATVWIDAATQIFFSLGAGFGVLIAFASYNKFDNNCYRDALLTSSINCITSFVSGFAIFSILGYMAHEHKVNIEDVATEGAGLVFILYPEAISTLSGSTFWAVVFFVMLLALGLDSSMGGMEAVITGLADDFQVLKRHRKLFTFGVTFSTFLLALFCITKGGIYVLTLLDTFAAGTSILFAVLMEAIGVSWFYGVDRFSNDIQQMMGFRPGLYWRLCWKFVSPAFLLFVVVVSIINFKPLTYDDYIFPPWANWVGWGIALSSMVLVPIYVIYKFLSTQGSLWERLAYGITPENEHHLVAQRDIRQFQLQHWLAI
T10 sequence (P28223 whole entry): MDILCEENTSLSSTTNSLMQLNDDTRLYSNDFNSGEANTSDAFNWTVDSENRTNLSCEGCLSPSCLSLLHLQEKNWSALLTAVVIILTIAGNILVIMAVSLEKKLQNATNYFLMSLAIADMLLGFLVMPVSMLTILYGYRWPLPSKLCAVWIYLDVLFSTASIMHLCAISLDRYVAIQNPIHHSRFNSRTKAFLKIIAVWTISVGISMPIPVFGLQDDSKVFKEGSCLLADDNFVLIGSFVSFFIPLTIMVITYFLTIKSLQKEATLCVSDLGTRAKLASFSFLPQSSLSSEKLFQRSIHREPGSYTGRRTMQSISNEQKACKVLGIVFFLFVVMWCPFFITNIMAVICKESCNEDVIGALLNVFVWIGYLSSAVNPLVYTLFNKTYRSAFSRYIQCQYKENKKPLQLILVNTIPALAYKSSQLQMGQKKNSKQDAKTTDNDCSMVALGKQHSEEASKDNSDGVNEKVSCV
T3 sequence (P34969 whole entry): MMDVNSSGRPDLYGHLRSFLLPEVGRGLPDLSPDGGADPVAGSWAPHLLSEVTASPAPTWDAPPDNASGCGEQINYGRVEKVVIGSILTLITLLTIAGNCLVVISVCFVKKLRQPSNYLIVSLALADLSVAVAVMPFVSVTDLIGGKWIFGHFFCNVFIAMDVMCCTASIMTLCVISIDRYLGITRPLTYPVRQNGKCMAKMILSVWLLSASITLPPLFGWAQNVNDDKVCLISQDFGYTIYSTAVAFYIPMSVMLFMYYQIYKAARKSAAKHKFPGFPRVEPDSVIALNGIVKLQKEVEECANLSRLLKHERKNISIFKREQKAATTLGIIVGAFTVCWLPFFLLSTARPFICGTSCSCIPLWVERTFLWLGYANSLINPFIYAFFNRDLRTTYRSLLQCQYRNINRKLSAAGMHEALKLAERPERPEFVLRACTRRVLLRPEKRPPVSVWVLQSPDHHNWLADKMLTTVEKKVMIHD
Chain of GluN1-GluN2A NMDAR subtype (Q12879 23-1464, other chains not shown): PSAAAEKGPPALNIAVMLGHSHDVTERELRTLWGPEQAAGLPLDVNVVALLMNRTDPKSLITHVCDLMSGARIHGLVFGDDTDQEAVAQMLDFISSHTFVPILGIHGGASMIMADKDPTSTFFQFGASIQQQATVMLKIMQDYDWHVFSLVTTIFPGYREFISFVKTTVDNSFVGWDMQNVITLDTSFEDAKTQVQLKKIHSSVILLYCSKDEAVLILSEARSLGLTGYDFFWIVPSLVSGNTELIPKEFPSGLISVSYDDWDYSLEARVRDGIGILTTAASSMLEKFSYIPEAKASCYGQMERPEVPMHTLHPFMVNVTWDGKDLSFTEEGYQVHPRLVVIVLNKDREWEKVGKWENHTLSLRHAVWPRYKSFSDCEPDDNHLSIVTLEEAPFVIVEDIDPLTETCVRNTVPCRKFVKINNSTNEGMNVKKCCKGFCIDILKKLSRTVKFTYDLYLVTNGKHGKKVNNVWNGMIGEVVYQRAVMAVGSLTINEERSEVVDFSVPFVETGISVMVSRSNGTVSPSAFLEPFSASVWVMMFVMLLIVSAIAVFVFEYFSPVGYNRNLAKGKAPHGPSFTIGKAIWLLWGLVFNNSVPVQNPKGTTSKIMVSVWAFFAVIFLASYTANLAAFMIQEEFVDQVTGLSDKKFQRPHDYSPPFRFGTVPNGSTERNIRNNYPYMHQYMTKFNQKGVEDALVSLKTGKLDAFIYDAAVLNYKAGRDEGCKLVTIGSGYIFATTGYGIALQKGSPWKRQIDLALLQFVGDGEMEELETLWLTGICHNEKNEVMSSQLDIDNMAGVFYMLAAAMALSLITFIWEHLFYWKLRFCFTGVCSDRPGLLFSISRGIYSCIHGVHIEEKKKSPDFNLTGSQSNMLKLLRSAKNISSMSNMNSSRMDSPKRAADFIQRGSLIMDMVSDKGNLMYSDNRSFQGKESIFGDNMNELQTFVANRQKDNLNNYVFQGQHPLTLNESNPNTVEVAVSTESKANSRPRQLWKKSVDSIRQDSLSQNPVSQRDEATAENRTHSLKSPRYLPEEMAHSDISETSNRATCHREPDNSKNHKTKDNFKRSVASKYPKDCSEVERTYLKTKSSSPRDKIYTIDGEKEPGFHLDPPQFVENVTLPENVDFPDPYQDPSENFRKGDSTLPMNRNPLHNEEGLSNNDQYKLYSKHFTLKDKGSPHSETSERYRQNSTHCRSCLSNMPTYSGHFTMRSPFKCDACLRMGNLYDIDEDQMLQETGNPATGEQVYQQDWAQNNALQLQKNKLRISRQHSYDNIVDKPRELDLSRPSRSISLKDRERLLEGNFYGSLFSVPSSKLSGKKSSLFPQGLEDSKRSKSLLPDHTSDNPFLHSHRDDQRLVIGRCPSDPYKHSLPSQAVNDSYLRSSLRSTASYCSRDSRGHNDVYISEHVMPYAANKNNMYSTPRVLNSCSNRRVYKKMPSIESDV
T6 sequence (P35367 whole entry): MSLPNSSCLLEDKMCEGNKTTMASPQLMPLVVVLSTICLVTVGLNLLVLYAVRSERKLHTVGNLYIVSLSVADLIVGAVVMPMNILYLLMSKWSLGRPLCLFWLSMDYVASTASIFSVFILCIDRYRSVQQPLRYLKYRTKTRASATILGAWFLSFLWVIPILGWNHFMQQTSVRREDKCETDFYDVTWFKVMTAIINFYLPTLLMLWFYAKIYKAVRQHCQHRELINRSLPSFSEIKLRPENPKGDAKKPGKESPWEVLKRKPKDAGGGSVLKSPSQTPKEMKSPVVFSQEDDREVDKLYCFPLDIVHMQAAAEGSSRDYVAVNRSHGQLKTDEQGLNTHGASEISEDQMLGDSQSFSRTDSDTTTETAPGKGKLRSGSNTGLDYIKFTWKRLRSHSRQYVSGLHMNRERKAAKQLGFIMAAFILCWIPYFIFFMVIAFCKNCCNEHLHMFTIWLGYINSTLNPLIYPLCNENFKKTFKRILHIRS
T9 sequence (P47898 whole entry): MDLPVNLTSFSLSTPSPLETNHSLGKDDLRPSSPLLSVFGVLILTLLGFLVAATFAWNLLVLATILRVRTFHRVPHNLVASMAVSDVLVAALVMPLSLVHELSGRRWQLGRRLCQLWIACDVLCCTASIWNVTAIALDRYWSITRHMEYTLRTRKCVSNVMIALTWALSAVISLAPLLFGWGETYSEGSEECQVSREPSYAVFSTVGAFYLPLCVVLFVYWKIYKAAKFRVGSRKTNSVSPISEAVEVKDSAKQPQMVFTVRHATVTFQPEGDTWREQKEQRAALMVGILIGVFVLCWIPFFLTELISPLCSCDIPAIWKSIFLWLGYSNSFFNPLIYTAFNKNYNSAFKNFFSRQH

Consider `CCC(=O)C(C[C@H](C)N(C)C)(c1ccccc1)c1ccccc1` [(S)-methadone, 6-(Dimethylamino)-4,4-diphenylheptan-3-one, reference compound], for which the inhibition at 1 µM at Muscarinic M5 came out at 25%; on Serotonin 5-HT7, 12%; in [1], 5%; in assay [2], 21%; on Serotonin 5-HT5A, 24%. The inhibition at 10 µM at Muscarinic M5 came out at 73%; on Serotonin 5-HT7 it was 58%; in [1], 17%; at Histamine H1, 50%; in assay [2], 74%; at Serotonin 5-HT5A, 70%. In addition, the inhibition at 0.3 µM on Serotonin 5-HT1A was -2%; at Sigma σ1, 23%; at Serotonin 5-HT2C, 30%; at Serotonin 5-HT2A it was 22%. Besides, the inhibition at 3 µM came out at 2% on Serotonin 5-HT1A, 70% at Sigma σ1, 77% on Serotonin 5-HT2C and 72% on Serotonin 5-HT2A. Also, the inhibition at 30 µM at Histamine H1 came out at 73%. Further, the “displacement at the histamine H1 receptor, in words” value at Histamine H1 is “significant displacement percentages”. Further, the “activity on 5-HT2A, in words” value on Serotonin 5-HT2A (concentration not given) is recorded as “appreciable activity”.
On to `CC[C@@H](O)C(C[C@H](C)N(C)C)(c1ccccc1)c1ccccc1` [(3R,6S)-ML, (3R,6S)-6-(dimethylamino)-4,4-diphenylheptan-3-ol], for which, in assay [3], the “pIC50 (mean ± SEM) GluN1-GluN2A” value is listed as 4.0 ± 0.23.
Turning to `C[C@]12N[C@H](Cc3ccccc31)c1ccccc12` [(+)-MK-801, reference compound], in assay [4], the “pIC50 (mean ± SEM) GluN1-GluN2B” value was found to be 7.2 ± 0.067. For the same compound, in [5], the “pIC50 (mean ± SEM) GluN1-GluN2D” value is 6.1 ± 0.58. Moreover, in assay [6], the “pIC50 (mean ± SEM) GluN1-GluN2C” value stood at 6.2 ± 0.064.
With `CCC1=[N+](C)[C@H](C)CC1(c1ccccc1)c1ccccc1.[Cl-]` [(R)-EDDP, 2-Ethyl-1,5-dimethyl-3,3-diphenyl-3,4-dihydro-5H-pyrrolium chloride], in assay [5], the “pIC50 (mean ± SEM) GluN1-GluN2D” value is given as 4.3 ± 0.060. Also, the “pIC50 (mean ± SEM) GluN1-GluN2C” value in assay [6] came to 4.3 ± 0.056.
Regarding `CC[C@H](O)C(C[C@@H](C)N(C)C)(c1ccccc1)c1ccccc1` [(3S,6R)-ML, (3S,6R)-6-(dimethylamino)-4,4-diphenylheptan-3-ol], the “pIC50 (mean ± SEM) GluN1-GluN2D” value in assay [5] amounted to 4.2 ± 0.23. In addition, the “pIC50 (mean ± SEM) GluN1-GluN2C” value in [6] is recorded as 4.2 ± 0.074. Besides, the “pIC50 (mean ± SEM) GluN1-GluN2A” value in [3] is 4.5 ± 0.18.
As to `CCC1=N[C@H](C)CC1(c1ccccc1)c1ccccc1` [(R)-EMDP, 5-Ethyl-2-methyl-4,4-diphenyl-3,4-dihydro-2H-pyrrole], the inhibition at 1 µM on Muscarinic M5 was 6%; on Serotonin 5-HT7 it was 0%; in assay [1], -5%; in [2], 3%; on Serotonin 5-HT5A, 1%. In addition, the inhibition at 10 µM at Muscarinic M5 amounted to 3%; on Serotonin 5-HT7 it was 8%; in [1], 27%; on Histamine H1, 24%; in [2], 7%; at Serotonin 5-HT5A, 0%. The inhibition at 0.3 µM on Serotonin 5-HT1A is 0%; on μ opioid receptor (MOP) (0.3 μM), -4%; on Sigma σ1, 11%; on Serotonin 5-HT2C, 2%; on Serotonin 5-HT2A, 4%. For the same compound, the inhibition at 3 µM on Serotonin 5-HT1A is 7%; on μ opioid receptor (MOP) (3 μM) it was 8%; on Sigma σ1, 49%; at Serotonin 5-HT2C, 7%; on Serotonin 5-HT2A, 14%. Also, the “% inhibition of binding, NMDA” value in assay [7] (1 μM) is reported as 12%; in assay [7] (10 μM) it was 4%. On Histamine H1, the inhibition at 30 µM is 62%. For the same compound, at Histamine H1, the “displacement at the histamine H1 receptor, in words” value is listed as “significant displacement percentages”. Further, the “pIC50 (mean ± SEM) GluN1-GluN2A” value in [3] stood at 4.8 ± 0.088.
